Data: PubChem BioAssay (NCI)
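Cultured in 96-well plates, cells were exposed to test compound for 48 hours across five concentrations. Here, GI50 denotes the concentration required for 50% inhibition of growth. At the TGI there is no net growth.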

Columns and labels:
Assay in all cases: NCI anticancer screen, dose series, 48 h
CCRF-CEM leukemia = system: CCRF-CEM leukemia
HOP-62 NSCLC = system: HOP-62 NSCLC
LOX IMVI melanoma = system: LOX IMVI melanoma
M14 melanoma = system: M14 melanoma
NCI-H522 lung = system: NCI-H522 lung
RPMI-8226 leukemia = system: RPMI-8226 leukemia
SF-295 CNS = system: SF-295 CNS
A498 renal = system: A498 renal
MCF7 breast = system: MCF7 breast
DU-145 prostate = system: DU-145 prostate

| SMILES | TGI (CCRF-CEM leukemia) | TGI (HOP-62 NSCLC) | TGI (LOX IMVI melanoma) | TGI (M14 melanoma) | TGI (NCI-H522 lung) | TGI (RPMI-8226 leukemia) | TGI (SF-295 CNS) | GI50 (A498 renal) | TGI (A498 renal) | GI50 (CCRF-CEM leukemia) | GI50 (HOP-62 NSCLC) | GI50 (LOX IMVI melanoma) | GI50 (MCF7 breast) | TGI (MCF7 breast) | GI50 (NCI-H522 lung) | GI50 (RPMI-8226 leukemia) | GI50 (SF-295 CNS) | TGI (DU-145 prostate) | GI50 (DU-145 prostate) | GI50 (M14 melanoma) |
| --- | --- | --- | --- | --- | --- | --- | --- | --- | --- | --- | --- | --- | --- | --- | --- | --- | --- | --- | --- | --- |
| Cn1c(=O)oc2cc(C3CCC(=O)N3Cc3ccc(Cl)cc3)ccc21 (stereo not drawn) | > 100 µM | > 100 µM | > 100 µM | > 100 µM | > 100 µM | > 100 µM | > 100 µM |  |  |  |  |  |  |  |  |  |  |  |  |  |
| COc1ccc(-c2csc3c2-n2cccc2C3=O)cc1O | 0.4 µM | > 100 µM | > 100 µM |  | 0.0434 µM | 3.16 µM | > 100 µM | 1.13 µM | 13.5 µM | 0.059 µM | 0.0578 µM | < 0.0182 µM | 0.0326 µM | > 100 µM | < 0.01 µM | 0.0176 µM | 0.5 µM |  |  |  |
| COc1ccccc1NC(=O)CC(=O)NNCC(=O)Nc1nnc(-c2ccccc2)o1 |  | > 100 µM | > 100 µM | > 100 µM | > 100 µM | > 100 µM | > 100 µM |  | > 100 µM |  |  |  |  |  |  |  |  |  |  |  |
| O=C(CCCn1ccnc1[N+](=O)[O-])NCCn1ccnc1[N+](=O)[O-] | > 100 µM | > 100 µM | > 100 µM | > 100 µM | > 100 µM | > 100 µM | > 100 µM |  |  |  |  |  |  | > 100 µM |  |  |  | > 100 µM |  |  |
| COc1ccc2[nH]cc(-c3nc(-c4c[nH]c5ccncc45)cs3)c2c1 | 7.18 µM | 4.77 µM |  | 3.62 µM | 3.65 µM | 4.76 µM | 3.19 µM | 4.91 µM | 16.1 µM | 2.45 µM | 2.08 µM |  | 1.66 µM | 3.4 µM | 1.81 µM | 2.08 µM | 1.7 µM | 8.57 µM | 2.73 µM | 1.83 µM |
| O=C1C=CC(=O)c2c1ncc1c2nc2sccn21 | 6.62 µM | 47.4 µM | > 100 µM | 39.8 µM | 61.2 µM | 47.4 µM | > 100 µM |  |  | 2.07 µM | 21.2 µM | 29.9 µM | 20.6 µM | > 100 µM | 16 µM | 12.7 µM | 48.3 µM | 40 µM | 12.8 µM | 15.7 µM |
| O=C(O)c1ccc(C2C3C=CC(C3)C2[N+](=O)[O-])cc1 (stereo not drawn) | > 100 µM | > 100 µM | > 100 µM | > 100 µM | > 100 µM | > 100 µM | > 100 µM |  | > 100 µM |  |  |  |  |  |  |  |  |  |  |  |
| CC[C@@]1(O)C(=O)OCc2c1cc1n(c2=O)Cc2cc3c(NC(=O)CN)cccc3nc2-1 | 2.33 µM | 9.22 µM |  | 2.8 µM | 56.3 µM | 28.6 µM | 20.4 µM |  | 3.27 µM |  |  |  |  | > 100 µM |  |  |  | 1.98 µM |  |  |
| CNC(=O)OCc1[nH]ccc2c(C)c3nc4ccc(OC)cc4c3cc12 | 13.6 µM | 56 µM |  | > 100 µM | > 20.7 µM | 10.6 µM | > 100 µM |  | 30.7 µM |  |  |  |  |  |  |  |  |  |  |  |
| N#C[C@H]1Nc2ccccc2[C@@H](O)C1O (stereo partly drawn) | > 100 µM | > 100 µM | > 100 µM | > 100 µM |  | > 100 µM | > 100 µM |  |  |  |  |  |  | > 100 µM |  |  |  | > 100 µM |  |  |
| O=C(O)CCCNS(=O)(=O)c1ccc2ccccc2c1 | > 100 µM |  | > 100 µM | > 100 µM | > 100 µM | > 100 µM | > 100 µM |  | > 100 µM |  |  |  |  |  |  |  |  |  |  |  |
| NC(N)=N/N=C/c1c(-c2ccc(Cl)c([N+](=O)[O-])c2)nc2ccccn12 |  | 2.9 µM |  |  |  |  | 3.42 µM | 5.82 µM | 14.4 µM |  | 1.56 µM |  |  |  |  |  | 1.82 µM | 5.6 µM | 1.94 µM |  |
| CC1=CC2CC(C)C1(C)CCc1ccoc12 (stereo not drawn) | > 100 µM | > 100 µM | > 100 µM | > 100 µM |  | > 100 µM | > 100 µM |  | > 100 µM |  |  |  |  |  |  |  |  |  |  |  |
| CC(=O)OC12CC(C)C3(O)C4C=C(C)C(=O)[C@@]4(O)CC(CO)=C[C@H]3C1C2(C)C (stereo partly drawn) | > 1000 µM |  | > 1000 µM | > 1000 µM | > 1000 µM | > 1000 µM |  | 0.346 µM |  |  |  | > 1000 µM | > 1000 µM | > 1000 µM | > 1000 µM | > 1000 µM |  | > 1000 µM | > 1000 µM | > 1000 µM |
| CCOC(=O)C(=O)Nc1ccc(Cl)c(C(F)(F)F)c1 | > 100 µM | > 100 µM | > 100 µM | > 100 µM | > 100 µM | > 100 µM | > 100 µM |  |  |  |  |  |  |  |  |  |  |  |  |  |
| COC(=O)C1=Cc2c(cc(OC)c(OC)c2OC)[C@H](c2ccc(OC)c(OC)c2OC)C1C(=O)OC (stereo partly drawn) | > 100 µM | > 100 µM | > 100 µM | > 100 µM | > 100 µM | > 100 µM | > 100 µM |  | > 100 µM |  |  |  |  |  |  |  |  |  |  |  |
| Cc1ccc(/C(=C/C=C(C#N)C#N)Sc2ccccn2)cc1 | 0.575 µM | 18 µM | 4.05 µM | 6.29 µM | 19.6 µM |  | 22.8 µM | 11.6 µM | 24 µM | 0.168 µM | 6.5 µM | 1.83 µM | 4.62 µM | 36 µM | 6.49 µM |  | 8.72 µM | 6.06 µM | 2.28 µM | 2.69 µM |
| Cc1ccc2nc(N/N=C/c3cccc(C)n3)cc(C)c2c1 |  | 36.8 µM | 31.6 µM | 46.9 µM | 39.8 µM | 42.5 µM | 31.6 µM |  | 37.6 µM |  |  |  |  | 32.5 µM |  |  |  | 36.3 µM |  |  |
| COc1cc2c(c(OC)c1OC)-c1ccc(SC)c(=O)cc1C(CC(=O)Oc1cccc(C#N)c1)C2 (stereo not drawn) | 5.33 µM | > 100 µM | > 33.2 µM | > 88.8 µM |  | 21.9 µM | > 100 µM |  | 0.522 µM |  |  |  |  |  |  |  |  |  |  |  |
| COc1ccc(C(=O)CC(c2ccc(OC)c(OC)c2)c2c(O)c3ccccc3oc2=O)cc1OC (stereo not drawn) | > 100 µM | > 100 µM | > 100 µM | > 100 µM | > 100 µM | > 100 µM | > 100 µM |  |  |  |  |  |  | > 100 µM |  |  |  | > 100 µM |  |  |
| C=C1C(=O)O[C@H]2C[C@@H]1CCC1(C)OC1CC/C(C)=C/CC[C@H]2C (stereo partly drawn) |  | 34.5 µM | 38.6 µM | 31.9 µM | > 100 µM | 41.9 µM | 26.3 µM | 17.7 µM | 33.6 µM |  | 18.9 µM | 24 µM | 18 µM | 36.6 µM | 37.9 µM | 20.1 µM | 12.3 µM |  |  | 18 µM |
| CC(=O)O[C@H]1CC[C@@]2(C)C(=CC[C@@H]3C2CC[C@]2(C)Nc4[nH]ncc4CC32)C1 (stereo partly drawn) | 40.3 µM | > 100 µM |  | 42.9 µM |  | 65.9 µM | > 100 µM |  | > 100 µM |  |  |  |  |  |  |  |  |  |  |  |
